Assay results taken from paper doi:10.1101/2024.10.12.618019v1 (biorxiv, 2024).

Assays:
Assay in all cases: biochemical
5HT1A = biological target: T1, 5HT1A (Homo sapiens, UniProt P08908)
T1 sequence (P08908 1-422): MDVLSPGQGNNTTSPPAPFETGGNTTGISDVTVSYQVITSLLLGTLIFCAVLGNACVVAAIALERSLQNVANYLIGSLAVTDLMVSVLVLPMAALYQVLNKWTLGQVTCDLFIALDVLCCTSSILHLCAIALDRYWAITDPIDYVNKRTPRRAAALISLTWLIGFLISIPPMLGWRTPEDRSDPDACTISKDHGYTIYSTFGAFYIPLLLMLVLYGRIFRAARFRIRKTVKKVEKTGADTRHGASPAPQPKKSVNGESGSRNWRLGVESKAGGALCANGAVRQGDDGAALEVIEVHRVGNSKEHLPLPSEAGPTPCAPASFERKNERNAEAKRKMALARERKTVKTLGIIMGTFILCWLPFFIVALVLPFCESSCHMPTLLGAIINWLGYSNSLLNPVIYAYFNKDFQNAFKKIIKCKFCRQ

5HT1E = 5HT1E (Homo sapiens, UniProt P28566)
5HT2B = 5HT2B (Homo sapiens, UniProt P41595)
5HT2C = biological target: T2, 5HT2C (Homo sapiens, UniProt P28335)
T2 sequence (P28335 1-458): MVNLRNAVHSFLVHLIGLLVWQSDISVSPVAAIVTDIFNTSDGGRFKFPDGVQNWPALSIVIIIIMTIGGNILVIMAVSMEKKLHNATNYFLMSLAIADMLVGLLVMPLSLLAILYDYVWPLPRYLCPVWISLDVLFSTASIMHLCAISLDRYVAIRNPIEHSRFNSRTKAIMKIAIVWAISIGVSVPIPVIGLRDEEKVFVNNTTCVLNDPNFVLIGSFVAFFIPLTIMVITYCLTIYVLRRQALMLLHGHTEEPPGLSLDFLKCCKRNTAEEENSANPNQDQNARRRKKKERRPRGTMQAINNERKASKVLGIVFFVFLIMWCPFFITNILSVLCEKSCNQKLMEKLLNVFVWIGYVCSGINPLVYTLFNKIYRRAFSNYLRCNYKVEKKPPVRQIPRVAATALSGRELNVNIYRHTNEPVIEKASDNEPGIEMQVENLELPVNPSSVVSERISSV

5HT3 = biological target: T3, 5HT3 (Homo sapiens, UniProt P46098)
T3 sequence (P46098 1-478): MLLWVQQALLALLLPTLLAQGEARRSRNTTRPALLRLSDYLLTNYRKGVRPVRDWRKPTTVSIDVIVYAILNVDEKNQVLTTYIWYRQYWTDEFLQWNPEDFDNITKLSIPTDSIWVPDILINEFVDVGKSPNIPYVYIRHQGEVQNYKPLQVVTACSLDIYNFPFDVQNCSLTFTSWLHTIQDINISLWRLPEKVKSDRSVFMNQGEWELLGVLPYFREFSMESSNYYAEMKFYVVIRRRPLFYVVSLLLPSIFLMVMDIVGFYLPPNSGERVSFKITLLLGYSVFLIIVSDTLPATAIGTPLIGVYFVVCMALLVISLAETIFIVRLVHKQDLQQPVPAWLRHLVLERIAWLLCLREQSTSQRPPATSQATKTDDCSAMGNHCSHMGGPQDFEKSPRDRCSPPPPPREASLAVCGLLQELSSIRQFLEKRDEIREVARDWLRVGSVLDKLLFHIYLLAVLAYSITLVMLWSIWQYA

5HT5A = 5HT5A (Homo sapiens, UniProt P47898)
5HT6 = 5HT6 (Homo sapiens, UniProt P50406)
5HT7A = 5HT7A (Homo sapiens, UniProt P34969)
D1 = D1 (Homo sapiens, UniProt P21728)
D2 = D2 (Homo sapiens, UniProt P14416)
D3 = D3 (Homo sapiens, UniProt P35462)
D4 = biological target: T4, D4 (Homo sapiens, UniProt P21917)
T4 sequence (P21917 1-419): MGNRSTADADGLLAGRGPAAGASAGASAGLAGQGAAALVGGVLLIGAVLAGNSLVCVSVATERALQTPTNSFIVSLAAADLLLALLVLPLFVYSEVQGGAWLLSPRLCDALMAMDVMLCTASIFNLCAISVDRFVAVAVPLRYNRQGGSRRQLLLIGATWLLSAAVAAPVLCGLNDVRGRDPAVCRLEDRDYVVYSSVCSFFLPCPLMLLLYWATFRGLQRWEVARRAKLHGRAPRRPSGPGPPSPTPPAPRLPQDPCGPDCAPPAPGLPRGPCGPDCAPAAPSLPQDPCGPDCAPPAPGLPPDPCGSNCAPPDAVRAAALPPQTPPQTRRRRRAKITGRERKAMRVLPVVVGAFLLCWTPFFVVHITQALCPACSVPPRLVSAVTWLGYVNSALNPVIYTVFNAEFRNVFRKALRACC

D5 = D5 (Homo sapiens, UniProt P21918)
DAT = DAT (Homo sapiens, UniProt Q01959)
H1 = H1 (Homo sapiens, UniProt P35367)
H4 = H4 (Homo sapiens, UniProt Q9H3N8)
MOR = MOR (Homo sapiens, UniProt P35372)
NOP = NOP (Homo sapiens, UniProt P41146)
SERT = SERT (Homo sapiens, UniProt P31645)
5HT2A = 5HT2A (Homo sapiens, UniProt P28223)
5HT1D = 5HT1D (Homo sapiens, UniProt P28221)
DOR = DOR (Homo sapiens, UniProt P41143)
5HT1B = 5HT1B (Homo sapiens, UniProt P28222)

Sequence of D5 (P21918 whole entry): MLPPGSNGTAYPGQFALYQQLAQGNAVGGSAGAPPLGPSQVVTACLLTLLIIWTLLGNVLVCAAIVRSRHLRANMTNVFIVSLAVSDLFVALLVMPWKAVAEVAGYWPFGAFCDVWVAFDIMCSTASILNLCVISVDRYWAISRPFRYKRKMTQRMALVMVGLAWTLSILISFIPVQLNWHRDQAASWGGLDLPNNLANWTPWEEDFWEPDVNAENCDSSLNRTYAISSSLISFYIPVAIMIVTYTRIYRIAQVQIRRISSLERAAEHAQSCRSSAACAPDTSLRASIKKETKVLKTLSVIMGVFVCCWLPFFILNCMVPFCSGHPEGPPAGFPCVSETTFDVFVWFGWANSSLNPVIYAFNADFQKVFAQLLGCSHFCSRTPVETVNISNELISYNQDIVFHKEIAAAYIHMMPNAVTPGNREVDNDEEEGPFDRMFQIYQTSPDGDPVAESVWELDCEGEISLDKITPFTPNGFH
Sequence of H4 (Q9H3N8 whole entry): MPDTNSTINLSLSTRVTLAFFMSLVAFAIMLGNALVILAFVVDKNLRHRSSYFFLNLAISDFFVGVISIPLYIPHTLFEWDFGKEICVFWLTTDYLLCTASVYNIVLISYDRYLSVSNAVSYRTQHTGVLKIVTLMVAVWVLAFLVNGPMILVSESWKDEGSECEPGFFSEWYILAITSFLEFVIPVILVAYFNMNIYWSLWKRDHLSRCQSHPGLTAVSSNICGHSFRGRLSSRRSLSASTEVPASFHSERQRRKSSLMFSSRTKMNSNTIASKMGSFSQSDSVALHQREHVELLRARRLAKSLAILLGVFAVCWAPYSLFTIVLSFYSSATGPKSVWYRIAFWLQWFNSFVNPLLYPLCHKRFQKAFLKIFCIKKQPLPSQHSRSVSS
Sequence of 5HT6 (P50406 whole entry): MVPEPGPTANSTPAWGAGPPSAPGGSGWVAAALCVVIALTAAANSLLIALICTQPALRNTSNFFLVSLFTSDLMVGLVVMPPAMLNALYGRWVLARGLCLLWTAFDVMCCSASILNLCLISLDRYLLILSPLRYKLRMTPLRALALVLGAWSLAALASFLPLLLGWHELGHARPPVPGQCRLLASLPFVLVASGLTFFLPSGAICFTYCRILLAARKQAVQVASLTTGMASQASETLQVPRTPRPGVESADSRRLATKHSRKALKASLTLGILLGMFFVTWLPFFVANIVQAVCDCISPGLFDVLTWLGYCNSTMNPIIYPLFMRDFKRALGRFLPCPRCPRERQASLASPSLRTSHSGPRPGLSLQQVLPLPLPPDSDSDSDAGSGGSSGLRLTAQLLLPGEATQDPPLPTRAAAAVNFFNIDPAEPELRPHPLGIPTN
Sequence of 5HT7A (P34969 whole entry): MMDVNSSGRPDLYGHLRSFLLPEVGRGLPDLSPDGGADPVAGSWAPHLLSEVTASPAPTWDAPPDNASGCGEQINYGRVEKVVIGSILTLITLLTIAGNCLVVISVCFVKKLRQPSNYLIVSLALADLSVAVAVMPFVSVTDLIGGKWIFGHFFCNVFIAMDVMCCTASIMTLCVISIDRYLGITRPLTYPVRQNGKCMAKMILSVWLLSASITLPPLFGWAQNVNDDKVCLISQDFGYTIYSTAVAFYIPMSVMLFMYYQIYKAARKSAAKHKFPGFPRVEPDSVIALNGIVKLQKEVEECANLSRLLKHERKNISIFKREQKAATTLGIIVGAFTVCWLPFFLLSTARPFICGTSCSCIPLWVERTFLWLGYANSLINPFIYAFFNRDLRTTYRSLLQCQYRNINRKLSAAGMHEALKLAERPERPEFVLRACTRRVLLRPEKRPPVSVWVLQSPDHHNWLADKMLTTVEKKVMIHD
Sequence of 5HT2A (P28223 whole entry): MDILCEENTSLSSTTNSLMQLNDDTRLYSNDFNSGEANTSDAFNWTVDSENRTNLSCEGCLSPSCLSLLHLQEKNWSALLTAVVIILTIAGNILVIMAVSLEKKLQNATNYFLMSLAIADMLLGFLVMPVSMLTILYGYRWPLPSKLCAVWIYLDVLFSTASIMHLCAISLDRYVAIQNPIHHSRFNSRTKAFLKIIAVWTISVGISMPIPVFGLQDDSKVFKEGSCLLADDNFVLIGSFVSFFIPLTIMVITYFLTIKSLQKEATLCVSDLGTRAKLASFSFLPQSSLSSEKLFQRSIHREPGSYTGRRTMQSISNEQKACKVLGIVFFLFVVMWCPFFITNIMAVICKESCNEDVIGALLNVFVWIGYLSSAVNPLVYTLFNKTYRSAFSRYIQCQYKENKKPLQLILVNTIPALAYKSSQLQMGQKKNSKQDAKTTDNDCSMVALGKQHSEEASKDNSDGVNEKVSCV
Sequence of SERT (P31645 whole entry): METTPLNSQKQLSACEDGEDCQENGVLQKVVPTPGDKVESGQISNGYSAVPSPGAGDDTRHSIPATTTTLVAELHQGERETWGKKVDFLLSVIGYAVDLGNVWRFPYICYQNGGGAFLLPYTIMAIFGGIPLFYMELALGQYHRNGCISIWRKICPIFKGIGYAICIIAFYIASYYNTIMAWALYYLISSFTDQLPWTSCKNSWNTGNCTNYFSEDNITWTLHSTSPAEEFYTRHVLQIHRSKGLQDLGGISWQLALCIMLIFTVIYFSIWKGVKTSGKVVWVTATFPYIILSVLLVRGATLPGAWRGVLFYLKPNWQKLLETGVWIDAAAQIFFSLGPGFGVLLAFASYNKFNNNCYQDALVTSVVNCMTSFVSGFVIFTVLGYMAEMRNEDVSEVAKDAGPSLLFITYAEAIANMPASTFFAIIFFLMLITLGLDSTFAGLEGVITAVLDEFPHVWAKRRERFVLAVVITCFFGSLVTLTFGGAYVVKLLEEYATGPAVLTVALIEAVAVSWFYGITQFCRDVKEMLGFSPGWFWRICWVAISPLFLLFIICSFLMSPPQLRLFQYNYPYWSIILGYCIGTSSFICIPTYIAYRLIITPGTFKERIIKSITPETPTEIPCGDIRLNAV
Sequence of MOR (P35372 whole entry): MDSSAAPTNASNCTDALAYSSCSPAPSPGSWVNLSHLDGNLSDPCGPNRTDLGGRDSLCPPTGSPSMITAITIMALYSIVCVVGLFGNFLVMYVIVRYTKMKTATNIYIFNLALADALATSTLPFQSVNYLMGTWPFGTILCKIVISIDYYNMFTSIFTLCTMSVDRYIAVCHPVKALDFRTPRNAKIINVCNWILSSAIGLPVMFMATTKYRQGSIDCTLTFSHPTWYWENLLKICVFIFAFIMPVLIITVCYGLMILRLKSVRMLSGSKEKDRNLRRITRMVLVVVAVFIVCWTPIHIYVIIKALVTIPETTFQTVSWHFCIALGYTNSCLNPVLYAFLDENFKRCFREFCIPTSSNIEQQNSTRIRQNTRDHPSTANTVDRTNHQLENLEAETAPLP
Sequence of D1 (P21728 whole entry): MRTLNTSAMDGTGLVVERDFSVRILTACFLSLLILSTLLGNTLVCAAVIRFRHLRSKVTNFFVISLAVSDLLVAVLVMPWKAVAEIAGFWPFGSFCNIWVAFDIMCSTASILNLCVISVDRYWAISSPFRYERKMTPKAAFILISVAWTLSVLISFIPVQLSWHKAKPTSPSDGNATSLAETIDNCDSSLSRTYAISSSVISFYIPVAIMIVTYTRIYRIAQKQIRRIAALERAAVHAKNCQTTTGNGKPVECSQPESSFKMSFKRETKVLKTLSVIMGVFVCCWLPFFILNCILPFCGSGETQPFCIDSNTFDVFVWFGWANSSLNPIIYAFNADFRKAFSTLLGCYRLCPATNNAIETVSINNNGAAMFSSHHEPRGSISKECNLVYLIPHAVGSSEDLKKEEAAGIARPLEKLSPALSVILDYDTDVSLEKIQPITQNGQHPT
Sequence of DAT (Q01959 whole entry): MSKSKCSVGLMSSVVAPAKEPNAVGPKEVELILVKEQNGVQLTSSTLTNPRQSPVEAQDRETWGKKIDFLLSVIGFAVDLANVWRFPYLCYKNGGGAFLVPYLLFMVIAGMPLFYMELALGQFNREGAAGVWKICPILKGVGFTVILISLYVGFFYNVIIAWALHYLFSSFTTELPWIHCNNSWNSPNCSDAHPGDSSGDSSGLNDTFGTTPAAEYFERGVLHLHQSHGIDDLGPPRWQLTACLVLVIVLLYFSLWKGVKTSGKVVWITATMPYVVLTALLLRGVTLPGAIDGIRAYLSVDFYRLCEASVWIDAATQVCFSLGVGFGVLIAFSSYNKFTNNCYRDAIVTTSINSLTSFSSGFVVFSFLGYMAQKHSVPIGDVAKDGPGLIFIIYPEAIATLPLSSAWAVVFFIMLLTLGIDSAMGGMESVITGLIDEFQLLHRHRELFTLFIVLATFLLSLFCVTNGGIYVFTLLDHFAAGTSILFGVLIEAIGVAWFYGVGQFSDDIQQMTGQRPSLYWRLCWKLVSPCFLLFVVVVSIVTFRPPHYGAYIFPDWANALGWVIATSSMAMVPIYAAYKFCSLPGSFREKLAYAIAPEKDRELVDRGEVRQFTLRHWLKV
Sequence of 5HT5A (P47898 whole entry): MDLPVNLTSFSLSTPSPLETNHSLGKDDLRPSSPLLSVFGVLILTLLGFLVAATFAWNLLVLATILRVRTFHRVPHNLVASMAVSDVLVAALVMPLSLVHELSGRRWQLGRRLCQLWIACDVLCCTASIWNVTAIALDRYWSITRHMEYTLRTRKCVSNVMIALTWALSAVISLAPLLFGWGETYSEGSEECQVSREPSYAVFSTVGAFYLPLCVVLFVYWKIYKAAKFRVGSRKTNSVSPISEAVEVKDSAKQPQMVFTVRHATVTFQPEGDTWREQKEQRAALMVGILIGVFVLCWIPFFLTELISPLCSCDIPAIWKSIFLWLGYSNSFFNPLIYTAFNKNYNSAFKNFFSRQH

SMILES | Ki (5HT1A) [µM] | Ki (5HT1E) [µM] | Ki (5HT2B) [µM] | Ki (5HT2C) [µM] | Ki (5HT3) [µM] | Ki (5HT5A) [µM] | Ki (5HT6) [µM] | Ki (5HT7A) [µM] | Ki (D1) [µM] | Ki (D2) [µM] | Ki (D3) [µM] | Ki (D4) [µM] | Ki (D5) [µM] | Ki (DAT) [µM] | Ki (H1) [µM] | Ki (H4) [µM] | Ki (MOR) [µM] | Ki (NOP) [µM] | Ki (SERT) [µM] | Ki (5HT2A) [µM] | further results
Cc1cc(C(N)=O)cc(-c2cc(F)c(CNC3Cc4ccccc4C3)c(F)c2)c1 [1A] | > 10 | > 10 | > 10 | > 10 | > 10 | > 10 | > 10 | > 10 | 0.998 | 6.53 | 0.466 | 0.594 | > 10 | 0.533 | > 10 | > 10 | 0.0083 | > 10 | 0.523 | > 10 | 
Cc1cc(C(N)=O)cc(-c2ccc(CNC3Cc4ccccc4C3)c(F)c2)c1 [2A] | > 10 | > 10 | > 10 | > 10 | > 10 | > 10 | > 10 | 0.891 | 1.27 | > 10 | 0.748 | 0.748 | > 10 |  | > 10 | > 10 | 0.0092 | > 10 | 0.174 | > 10 | Ki (5HT1D): 1.66 µM; Ki (DOR): 0.35 µM
Cc1cc(C(N)=O)cc(-c2ccc(CNC3Cc4ccccc4C3)cc2)c1 [3A] | > 10 |  | > 10 | 2.27 | > 10 | > 10 | > 10 | 0.977 | 1.32 | > 10 | > 10 | 0.0272 | > 10 | 0.85 | > 10 | > 10 | 0.0078 | > 10 | 0.31 | > 10 | Ki (5HT1D): > 10 µM
Cc1cc(-c2cc(F)c(CNC3Cc4ccccc4C3)c(F)c2)cc(-c2ncn[nH]2)c1 [4A] | > 10 |  | 0.484 | > 10 | > 10 | > 10 | > 10 | > 10 | 1.87 | > 10 | > 10 | 1.77 | > 10 | 0.497 | > 10 | > 10 |  | > 10 | 0.334 | > 10 | 
Cc1cc(-c2ccc(CNC3Cc4ccccc4C3)c(F)c2)cc(-c2ncn[nH]2)c1 [5A] | > 10 | > 10 | 0.948 | > 10 | > 10 | 8.04 | > 10 | 0.707 | 1.27 | > 10 | 0.181 | 5.5 | > 10 | 0.303 | 6.18 | > 10 |  | 0.56 | 0.116 | 1.02 | Ki (5HT1B): 3.48 µM; Ki (5HT1D): 1.42 µM
Cc1cc(-c2ccc(CNC3Cc4ccccc4C3)cc2)cc(-c2nc[nH]n2)c1 [6A] | > 10 | > 10 | 0.826 | 0.47 | > 10 | 3.94 | > 10 | 0.747 | 0.716 | > 10 | > 10 | 1.77 | > 10 | 0.287 | 1.45 | > 10 | 0.0042 | 0.167 | 0.13 | 1 | Ki (5HT1D): 1.32 µM; Ki (DOR): 0.098 µM
